Test results reported in paper PMC8175350, “Drug repurposing screens identify chemical entities for the development of COVID-19 interventions” (Nature Communications, 2021).
Where “and” joins values, the source holds several entries; their conditions need not be identical. Identical values can stand only once. Counter-ions that a name gives are not always drawn. Like-named read-outs stand apart in the source and are kept apart here. Residues, ends and D or L forms follow the SMILES beside them. *: point of attachment. Cbz = O=C(OCc1ccccc1)*; CHN2 = [N-]=[N+]=C*

Assays:
[1] = tested on: SARS-CoV-2; test: microbe, parasite or virus in culture; assay type: cell-based
[2] = in vitro; conditions: human
[3] = Uninfected HeLa-ACE2 24 h live/dead cytotoxicity counter screen; assay type: cell-based, human; conditions: human, uninfected HeLa-ACE2 cells
[4] = in vitro; conditions: human, Calu-3 uninfected cytotoxicity CC50 GeoMean
[5] = tested on: HeLa-ACE2 cells; test: cells; conditions: Homo sapiens; for EC50: HeLa-ACE2, read-out: HeLa-ACE2 cell count EC50 GeoMean
[6] = tested on: SARS-CoV-2; test: microbe, parasite or virus in culture; assay type: cell-based; conditions: for EC50: read-out: HeLa-ACE2 TOA CoV-2 EC50 GeoMean
[7] = tested on: HeLa-ACE2 cells; test: Total cell count in the HeLa-ACE2 TOA (time of addition) assay; assay type: cell-based, human; conditions: Homo sapiens, HeLa-ACE2; read-out: HeLa-ACE2 TOA cell count EC50 GeoMean
[8] = tested on: SARS-CoV-2; assay type: cell-based
[9] = tested on: Calu-3 cells; test: cells; conditions: Homo sapiens; for EC50: Calu-3, read-out: Calu-3 cell count EC50 GeoMean
[10] = tested on: Calu-3 cells
[11] = in vitro; conditions: human; remark: listed apart in the source
[12] = tested on: SARS-CoV-2; test: microbe, parasite or virus in culture; assay type: cell-based; conditions: for Emax: Severe acute respiratory syndrome coronavirus 2, HeLa-ACE2, 24 h, read-out: HeLa-ACE2 CoV-2 Sinf Average; for HeLa-ACE2 SI: selectivity index, uninfected HeLa-ACE2 CC50 / SARS-CoV-2 EC50
[13] = tested on: HeLa-ACE2 cells; test: Uninfected HeLa-ACE2 24 h live/dead cytotoxicity counter screen; assay type: cell-based, human
[14] = tested on: SARS-CoV-2; test: Golden Syrian hamster SARS-CoV-2 efficacy model, body weight; assay type: in vivo; conditions: for hamster weight relative to day 0, individual animals: 500 mg/kg PO
[15] = tested on: HeLa-ACE2 cells; test: Total cell count in the HeLa-ACE2 TOA assay; assay type: cell-based; conditions: Homo sapiens
Text: Supplement 41467_2021_23328_MOESM3_ESM.xlsx, sheet "Table S1" | column: HeLa-ACE2 TOA cell count

[16] = tested on: SARS-CoV-2; assay type: cell-based; conditions: 72 hpi
[17] = tested on: SARS-CoV-2; test: Hamster lung viral titer by plaque assay, day 5; assay type: in vivo, Golden Syrian hamster; conditions: 500 mg/kg PO; values look like log10
[18] = ref [33]-[49], cited from earlier work
[19] = tested on: Calu-3 cells; test: Uninfected Calu-3 48 h Cell-Titer Glo cytotoxicity counter screen; conditions: curve plateau at infinite concentration
[20] = as above; conditions: human, uninfected Calu-3 cells, Calu-3 Uninf. cells CC50 (µM), reconfirmed hits
[21] = tested on: HepG2; test: HepG2 72 h CellTiter-Glo cytotoxicity; conditions: 72 h
[22] = HepG2 72 h CellTiter-Glo cytotoxicity; conditions: human, HepG2 cells
[23] = Pharmacokinetic studies in Syrian hamsters, PO; assay type: in vivo; conditions: 500 mg/kg PO; for AUC(0-t): po, 500 mg/kg
Method: Pharmacokinetic studies were conducted at Scripps Research Institute’s Animal Models Core in accordance with IACUC guidelines (IACUC Protocol #09-0004-5). Eight-week-old male Syrian Hamsters (Charles River; three per group) were dosed PO as indicated for each compound and formulation. Plasma concentration of each test article was monitored up to 48 h. Nelfinavir was formulated in 10% DMSO/90% corn oil and MK-4482 was formulated in 10% PEG400/2.5% Cremaphor RH40 for both pharmacokinetic and efficacy studies.

[24] = tested on: HEK293T; test: HEK293T 72 h CellTiter-Glo cytotoxicity; conditions: 72 h
[25] = HEK293T 72 h CellTiter-Glo cytotoxicity; conditions: human, HEK293T cells
[26] = Severe acute respiratory syndrome coronavirus 2, Calu-3, read-out: Calu-3 CoV-2 EC50 GeoMean
[27] = read-out: HeLa-ACE2 uninfected cytotoxicity CC50 GeoMean
[28] = Severe acute respiratory syndrome coronavirus 2, HeLa-ACE2, detail column
[29] = Severe acute respiratory syndrome coronavirus 2, HeLa-ACE2, detail column, read-out: HeLa-ACE2 CoV-2 EC50 GeoMean
[30] = curve plateau at infinite concentration
[31] = male, Syrian, hamster, plasma, 10%DMSO/90% Corn Oil

For `CCOC(=O)[C@@H]1O[C@H]1C(=O)N[C@@H](CC(C)C)C(=O)N1CCN(Cc2ccc(OC)c(OC)c2OC)CC1` [NCO 700], the EC50 [1, 26] was greater than 9.98 µM, the CC50 at 72 h [2] was greater than 39.8 µM and the CC50 at 24 h [3, 27] was greater than 39.8 µM. It also gave a CC50 at 48 h [4] greater than 29.9 µM, an Emax ([5]; HeLa-ACE2, 24 h, read-out: HeLa-ACE2 cell count Sinf Average) of -26% and an EC50 [5] greater than 5.08 µM. The “TOA:HeLa-ACE2 EC50 Ratio” value [6] was 12.146, the EC50 [6, 28] was greater than 9.59 µM and the EC50 [7] was greater than 9.59 µM. The “HeLa-ACE2 synergy score with remdesivi” value ([8]; combination with remdesivir) was 0.209 δ, the EC50 [9] was greater than 9.98 µM and the “uninfected Calu-3 CC50” value [10] was > 29.867 ×÷ 1.001 (n=3) μM. The CC50 at 72 h [11] was greater than 39.8 µM, the Emax [12] was 90% and the EC50 [12, 29] was 0.79 µM. For the same compound, the “HeLa-ACE2 SI” value [12] was greater than 50.44.

For `Cc1c(O)cccc1C(=O)N[C@@H](CSc1ccccc1)[C@H](O)CN1C[C@H]2CCCC[C@H]2C[C@H]1C(=O)NC(C)(C)C` [Nelfinavir mesylate], the Emax ([1]; Severe acute respiratory syndrome coronavirus 2, Calu-3, 48 h, curve plateau at infinite concentration, read-out: Calu-3 CoV-2 Sinf Average) was 90%, the EC50 ([1]; Severe acute respiratory syndrome coronavirus 2, Calu-3, reconfirmed hits, read-out: Calu-3 SARS-CoV-2 EC50) was 0.361 µM and the “HeLa-ACE2 uninfected cytotoxicity Sinf Average” value [13, 30] was -100%. For the same compound, the CC50 at 24 h ([3]; reconfirmed hits, read-out: HeLa-ACE2 Uninf. cells CC50) was greater than 18 µM, the CC50 at 24 h [3, 27] was greater than 18 µM and the “protection from weight loss and viral replication” value ([14]; 500 mg/kg PO BID) was “failed to protect animals from weight loss and viral replication”. For the same compound, the “hamster weight relative to day 0, individual animals” value ([14]; Day 1) was 99.1786 and 96.9182 and 97.0207 and 99.8527, the “hamster weight relative to day 0, individual animals” value ([14]; Day 2) was 97.2793 and 94.4654 and 95.1466 and 96.8581 and the “hamster weight relative to day 0, individual animals” value ([14]; Day 3) was 95.4312 and 90.7547 and 93.8011 and 92.8326. The “hamster weight relative to day 0, individual animals” value ([14]; Day 4) was 92.4025 and 86.7925 and 92.1672 and 89.1998, the “hamster weight relative to day 0, individual animals” value ([14]; Day 5) was 90.1951 and 82.0755 and 91.0139 and 86.6961 and the Emax ([15]; HeLa-ACE2, 10 h, read-out: HeLa-ACE2 TOA cell count Sinf Average) was 100%. The EC50 ([15]; HeLa-ACE2, read-out: HeLa-ACE2 TOA cell count EC50 GeoMean) was greater than 9.6 µM, the “reduction in apical viral loads” value [16] was greater than 1 log and the EC50 [5] was greater than 9.6 µM. For the same compound, the Emax ([6]; Severe acute respiratory syndrome coronavirus 2, HeLa-ACE2, 10 h, curve plateau at infinite concentration, read-out: HeLa-ACE2 TOA CoV-2 Sinf Average) was 100%, the EC50 ([6]; Severe acute respiratory syndrome coronavirus 2, HeLa-ACE2) was greater than 8.35 µM and the “viral titers in lungs, individual animals” value [17] was 9.667 and 7.176 and 8.778 and 9.217. The “Synergy score with remdesivir (δ)” value [8] was −1.23, the interaction with remdesivir ([8]; ZIP model) was “additive (Additive effect: -10< δ <10)” and the “dose-response point, normalized infected cells” value ([8]; alone, Concentration [uM] -7.08145) was 8.854 and 6.527 and 6.904. For the same compound, the “HeLa-ACE2 synergy score with remdesivi [δ]” value ([8]; combination with remdesivir, synergy score δ) was -1.233, the Emax ([9]; Calu-3, 48 h, read-out: Calu-3 cell count Sinf Average) was 79% and the EC50 [9] was 0.875 µM. The “Approx. t1/2” value ([18]; human) was 7 h, the Cmax ([18]; read-out: Approx. Cmax, human oral) was 17 µM and the “Calu-3 uninfected cytotoxicity Sinf Average” value [19] was -93%. For the same compound, the CC50 at 48 h [20] was greater than 9.4 µM, the “HepG2 72-hour cytotoxicity Sinf Average” value [21] was -100% and the CC50 at 72 h [22] was greater than 39.8 µM. For the same compound, the “plasma level of nelfinavir, individual animals” value (“plasma level of nelfinavir” for short) ([23]; 0:30:00) was 40.7 and 326 and 282, the “plasma level of nelfinavir” value ([23]; 1:00:00) was 20.2 and 6320 and 206 and the “plasma level of nelfinavir” value ([23]; 3:00:00) was 108 and 244 and 71.4. The “plasma level of nelfinavir” value ([23]; 7:00:00) was 156 and 276 and 245, the “Cl (mL/min/kg)” value ([23]; 10%DMSO/90% Corn Oil) was 2,542.16 mL/min/kg and the “Vd” value ([23]; 10%DMSO/90% Corn Oil) was 706.35 L/kg. The “plasma level of nelfinavir” value ([23]; 24:00:00) was “BQL and 41 and 2.73”, the “plasma level of nelfinavir” value ([23]; 32:00:00) was “BQL and 16.9 and 0.47” and the “plasma level of nelfinavir” value ([23]; 48:00:00) was “BQL (2×) and 1.81”. For the same compound, the “plasma exposure versus HeLa-ACE2 SARS-CoV-2 EC50” value ([23]; hamster) was “failed to reach exposures above HeLa-ACE2 SARS-CoV-2 EC50”, the AUC(0-t) ([23]; male, Syrian, hamster, plasma, 10%DMSO/90% Corn Oil, read-out: AUC0-24) was 3760 ng·h/mL and the AUC(0-t) ([23]; male, Syrian, hamster, plasma, 10%DMSO/90% Corn Oil, read-out: AUCLAST) was 3870 ng·h/mL. It also gave an AUC(0-inf) [23, 31] of 5480 ng·h/mL, a Cmax [23, 31] of 2250 ng/mL and an MRT [23, 31] of 5.82 h. For the same compound, the Tmax [23, 31] was 2.83 h, the half-life [23, 31] was 4.02 h and the Emax [12, 30] was 100%. The EC50 ([12]; Severe acute respiratory syndrome coronavirus 2, HeLa-ACE2, reconfirmed hits, read-out: HeLa-ACE2 SARS-CoV-2 EC50) was greater than 8.64 µM, the “HEK293T 72-hour cytotoxicty Sinf Average” value [24] was -100% and the CC50 at 72 h [25] was 15.7 µM.

For `CC(C)CC(NC(=O)OCc1ccccc1)C(=O)NC(C(=O)NCC(=O)C=[N+]=[N-])C(C)C` (stereo not drawn) [Z LVG CHN2] (Cbz-Leu-Val-Gly-CHN2; configuration not given here), the EC50 [1, 26] was greater than 9.98 µM, the CC50 at 72 h [2] was greater than 39.8 µM and the “HeLa-ACE2 uninfected cytotoxicity Sinf Average” value ([13]; human, uninfected HeLa-ACE2 cells, 24 h) was -100%. For the same compound, the CC50 at 24 h [3, 27] was greater than 39.8 µM, the CC50 at 48 h [4] was greater than 29.9 µM and the EC50 [5] was greater than 9.59 µM. For the same compound, the “TOA:HeLa-ACE2 EC50 Ratio” value [6] was 133.491, the EC50 [6, 28] was greater than 9.59 µM and the EC50 [7] was greater than 9.59 µM. For the same compound, the EC50 [9] was greater than 9.98 µM, the “uninfected Calu-3 CC50” value [10] was > 29.867 ×÷ 1.001 (n=3) μM and the CC50 at 72 h [11] was greater than 39.8 µM. The Emax [12] was 87%, the EC50 [12, 29] was 0.072 µM and the “HeLa-ACE2 SI” value [12] was greater than 554.29.
